Measurements from ChEMBL document CHEMBL1127938, “The first synthesis of a C-9 carbonyl modified baccatin III derivative and its conversion to novel taxol and taxotere analogues” (1994).

Experiments:
[1] = In vitro concentration in […] which reduces the protein concentration by 50% in a microtubule assembly assay, relative to taxol (1) and expressed as ED50/ED50 taxol; format: functional
[2] = test system: B16; assay: Compound was tested in vitro inhibition of proliferation against B16 melanoma after a 40h incubation relative to that of taxol (Taxol=1); format: functional, Mus musculus
[3] = In vitro concentration in […] which reduces the protein concentration by 50% in a microtubule assembly assay expressed as ED50/ED50 taxol; format: functional
[4] = test system: B16; assay: Compound was tested in vitro inhibition of proliferation against B16 melanoma after a 40h incubation; format: functional, Mus musculus

CC(=O)O[C@@]12CO[C@@H]1C[C@H](O)[C@@]1(C)c3oc(=O)oc3C3=C(C)[C@@H](OC(=O)[C@H](O)[C@@H](NC(=O)c4ccccc4)c4ccccc4)C[C@@](O)([C@@H](OC(=O)c4ccccc4)C12)C3(C)C (stereo partly specified)
ED50 ratio [1]: 2.4
ED50 ratio [2]: 34.5

CC(=O)O[C@H]1C(=O)[C@@]2(C)[C@H]([C@H](OC(=O)c3ccccc3)[C@]3(O)C[C@H](OC(=O)[C@H](O)[C@@H](NC(=O)c4ccccc4)c4ccccc4)C(C)=C1C3(C)C)[C@]1(OC(C)=O)CO[C@@H]1C[C@@H]2O [PACLITAXEL]
ED50 ratio [3]: 1
ED50 ratio [4]: 1

CC(=O)O[C@@]12CO[C@@H]1C[C@H](O)[C@@]1(C)c3oc(=O)oc3C3=C(C)[C@@H](OC(=O)[C@H](O)[C@@H](NC(=O)OC(C)(C)C)c4ccccc4)C[C@@](O)([C@@H](OC(=O)c4ccccc4)C12)C3(C)C (stereo partly specified)
ED50 ratio [1]: 0.5
ED50 ratio [2]: 16.4
